Experiments:
TGF-β1-α2M* complex = target: T1, TGF-β1-α2M* complex (Homo sapiens, UniProt P01023); assay: Inhibition of 125I-TGF-β1 and α2M* complex formation (5% non-denaturing PAGE, autoradiography); format: binding; settings: ~1 nM 125I-TGF-β1, 10 μg α2M* in 0.05 ml, 30 min room temperature, non-denaturing PAGE; read-out: IC50 for inhibiting complex formation between TGF-β1 and α2M*
T1 construct: was purified from pooled citrate-treate human plasma; from tissue; host or cells: pooled citrate-treated human plasma
T1 sequence (P01023 24-1474): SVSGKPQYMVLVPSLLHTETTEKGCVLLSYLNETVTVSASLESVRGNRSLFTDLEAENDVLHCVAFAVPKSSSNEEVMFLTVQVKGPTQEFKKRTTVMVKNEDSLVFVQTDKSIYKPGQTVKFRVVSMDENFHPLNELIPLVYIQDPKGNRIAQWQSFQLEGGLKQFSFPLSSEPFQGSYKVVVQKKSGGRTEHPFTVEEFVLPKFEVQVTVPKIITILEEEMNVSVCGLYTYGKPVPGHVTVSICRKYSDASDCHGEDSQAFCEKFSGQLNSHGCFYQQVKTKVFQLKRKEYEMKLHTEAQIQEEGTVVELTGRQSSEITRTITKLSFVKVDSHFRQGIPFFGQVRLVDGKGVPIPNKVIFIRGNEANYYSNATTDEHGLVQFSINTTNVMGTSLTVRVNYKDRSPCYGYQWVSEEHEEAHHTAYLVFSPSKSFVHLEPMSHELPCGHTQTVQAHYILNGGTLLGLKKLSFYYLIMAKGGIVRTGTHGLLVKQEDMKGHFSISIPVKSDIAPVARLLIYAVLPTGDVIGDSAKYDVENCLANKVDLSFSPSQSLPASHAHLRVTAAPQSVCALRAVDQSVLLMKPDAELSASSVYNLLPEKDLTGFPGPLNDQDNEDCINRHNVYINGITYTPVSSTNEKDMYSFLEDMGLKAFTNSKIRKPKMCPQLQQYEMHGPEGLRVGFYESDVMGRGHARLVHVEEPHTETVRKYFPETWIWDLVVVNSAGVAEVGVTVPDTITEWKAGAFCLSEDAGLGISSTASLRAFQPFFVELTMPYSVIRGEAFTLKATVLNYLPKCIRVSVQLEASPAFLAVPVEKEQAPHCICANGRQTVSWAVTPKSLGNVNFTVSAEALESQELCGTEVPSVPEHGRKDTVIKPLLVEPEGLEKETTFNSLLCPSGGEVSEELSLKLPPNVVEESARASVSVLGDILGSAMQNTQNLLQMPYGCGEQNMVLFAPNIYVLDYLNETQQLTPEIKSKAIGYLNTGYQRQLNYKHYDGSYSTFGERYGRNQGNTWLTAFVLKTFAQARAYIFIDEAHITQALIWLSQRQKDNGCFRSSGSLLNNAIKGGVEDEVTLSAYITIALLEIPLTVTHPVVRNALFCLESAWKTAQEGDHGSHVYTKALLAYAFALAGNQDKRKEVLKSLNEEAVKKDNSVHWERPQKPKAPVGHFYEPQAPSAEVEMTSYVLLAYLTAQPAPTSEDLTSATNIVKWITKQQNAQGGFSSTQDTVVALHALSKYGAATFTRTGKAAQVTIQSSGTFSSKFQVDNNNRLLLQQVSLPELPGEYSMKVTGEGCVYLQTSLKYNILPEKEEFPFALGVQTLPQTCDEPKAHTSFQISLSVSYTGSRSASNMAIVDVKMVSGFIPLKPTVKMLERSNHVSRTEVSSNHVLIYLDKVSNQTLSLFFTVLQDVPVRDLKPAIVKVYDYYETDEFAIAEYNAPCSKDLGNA
Method: Saturated and unsaturated fatty acids are present in plasma and tissues (25,26). The effects of various concentrations of saturated fatty acids on the formation of complexes between ^125I-TGF ? β1 and ? 2M* were examined. ^125I-TGF- ? 1 (1 nM) was incubated μg/ml) in the presence of various concentrations of n-caprylic acid ([…]), lauric acid (12 carbon atoms), myristic acid (14 carbon atoms), palmitic acid (16 carbon atoms) and stearic acid (18 carbon atoms). After 30 min at room temperature, the reaction mixture was analyzed by 5% non-denaturing PAGE and autoradiography, a standard method form determining complex formation between TGF-β and α2M* (12). […] At 100 μM, it inhibited 20% of the complex formation between TGF ? β1 and α2M*. Esterification consistently abolished the inhibitory activities of the fatty acids.
Complex formation of ^125I-TGF-β and ? 2M*—The reaction mixture contained 10 μg of . α2M*, ˜1 nM of ^125I-TGF- ? 1, ^125I-TGF ? β2 or ^125I-TGF ? acids (dissolved in 100% ethanol) in 0.05 ml of 50 mM HEPES-NaOH buffer, pH 7.4. The final concentration of ethanol in the reaction mixture was 0.5%. These fatty acids and fatty acid derivatives were soluble under the experimental conditions. After 30 min at room temperature, the complex formation of ^125I-TGF- ? and. α2M* was determined by 5% non-denaturing polyacrylamide gel electrophoresis (PAGE) or by 7.5% SDS-PAGE following cross-linking by 0.6 mM DSS. After electrophoresis, the gel was stained with Coomassie blue and analyzed by autoradiography. The ^125I-TGF- ? - ? 2M* complex which co-migrated with free ? 2M* was quantified using a PhosphoImager (Fuji).

125I-TGF-β1-α2M* complex = target: T2, 125I-TGF-β1-α2M* complex (Homo sapiens, UniProt P01023); assay: Dissociation of preformed 125I-TGF-β1-α2M* complex; format: binding; settings: at 250 μM
T2 construct: was purified from pooled citrate-treate human plasma; from tissue; host or cells: pooled citrate-treated human plasma
T2 sequence (P01023 24-1474): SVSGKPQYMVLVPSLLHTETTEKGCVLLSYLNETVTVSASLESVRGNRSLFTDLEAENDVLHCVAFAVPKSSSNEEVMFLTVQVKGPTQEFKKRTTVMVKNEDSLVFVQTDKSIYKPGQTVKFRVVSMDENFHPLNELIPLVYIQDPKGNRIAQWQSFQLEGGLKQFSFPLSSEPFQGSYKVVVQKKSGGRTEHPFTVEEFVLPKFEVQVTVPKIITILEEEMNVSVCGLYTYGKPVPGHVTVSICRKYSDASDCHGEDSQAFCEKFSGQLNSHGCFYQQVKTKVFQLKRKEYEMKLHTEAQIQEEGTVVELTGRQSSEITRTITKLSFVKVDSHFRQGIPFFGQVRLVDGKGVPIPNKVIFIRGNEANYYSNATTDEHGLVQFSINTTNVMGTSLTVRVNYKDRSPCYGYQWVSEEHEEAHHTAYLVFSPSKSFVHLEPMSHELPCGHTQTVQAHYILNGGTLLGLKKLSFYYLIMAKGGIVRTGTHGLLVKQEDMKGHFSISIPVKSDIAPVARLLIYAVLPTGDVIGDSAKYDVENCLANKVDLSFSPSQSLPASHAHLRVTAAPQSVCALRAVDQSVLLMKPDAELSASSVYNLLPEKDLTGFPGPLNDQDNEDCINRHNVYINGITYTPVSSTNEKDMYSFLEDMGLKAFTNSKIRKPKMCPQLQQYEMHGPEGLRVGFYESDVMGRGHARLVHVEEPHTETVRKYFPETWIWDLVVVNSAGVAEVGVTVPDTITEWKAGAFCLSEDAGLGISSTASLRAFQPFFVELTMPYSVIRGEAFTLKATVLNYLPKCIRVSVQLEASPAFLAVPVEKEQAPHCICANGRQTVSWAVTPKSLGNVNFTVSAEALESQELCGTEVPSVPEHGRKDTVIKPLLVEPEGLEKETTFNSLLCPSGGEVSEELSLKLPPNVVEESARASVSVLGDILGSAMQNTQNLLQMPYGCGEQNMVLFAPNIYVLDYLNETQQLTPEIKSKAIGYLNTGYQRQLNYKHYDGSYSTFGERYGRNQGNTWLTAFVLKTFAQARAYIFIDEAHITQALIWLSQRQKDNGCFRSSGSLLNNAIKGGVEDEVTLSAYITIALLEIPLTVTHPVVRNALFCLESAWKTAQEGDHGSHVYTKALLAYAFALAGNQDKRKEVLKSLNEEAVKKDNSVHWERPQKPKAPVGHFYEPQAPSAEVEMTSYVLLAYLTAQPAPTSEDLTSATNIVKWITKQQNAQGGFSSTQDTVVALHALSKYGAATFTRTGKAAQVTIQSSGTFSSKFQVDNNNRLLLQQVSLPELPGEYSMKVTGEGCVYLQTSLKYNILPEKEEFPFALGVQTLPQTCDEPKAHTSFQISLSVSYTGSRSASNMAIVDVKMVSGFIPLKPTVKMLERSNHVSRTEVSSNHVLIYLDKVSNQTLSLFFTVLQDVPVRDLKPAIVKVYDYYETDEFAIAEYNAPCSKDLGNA
Method: To determine whether fatty acids are capable of dissociating TGF- ? - ? 2M* complexes, various concentrations of arachidonic acid were added to a reaction mixture containing ^125I-TGF- ? 1 or ^125I-TGF ? β3 and α2M* which had been preincubated at room temperature for 30 mi 30 minutes at room temperature, the ^125I-TGF ? β isoform-α2M* complexes in the reaction mixtures were analyzed by 5% non-denaturing PAGE. […] However, lower concentrations of arachidonic acid were effective in inhibiting complex formation of ^125I-TGF- ? 1 and α2M* than were required to dissociate the ^125I-TGF- ? 1- ? 2M* complex.

CCCCCCCCCCCCCC(=O)O [myristic acid]
IC50 (TGF-β1-α2M* complex): 9.1 µM | dissociation of the 125I-TGF-β1-α2M* complex (125I-TGF-β1-α2M* complex): inactive

Reference: patent US20040229791A1, “Compositions and methods of modulating TGF-beta activity by fatty acids” (priority 2002, published 2004)
